How the values were obtained:
[1] = system: mesothelioma cells (Mero-41); experiment: Matrigel on-top (MoT) 3D culture, CellTiter-Glo cell viability, 9x9 combination matrix; format: cell-based; conditions: MEK inhibitor in combination with FAK inhibitor VS-6063, 96 hours incubation, compared with Bliss, HSA and Loewe models
Description: (§1) Cell Lines: Cancer cell lines were purchased from American Type Culture Collection (Manassas, VA) and cultured under ATCC recommended standard culture conditions. Mero-41 (mesothelioma cell line) were purchased from Sigma-Aldrich (St. Louis, MO) and cultured under ECACC recommended standard culture conditions. […] TOV-21G (ovarian clear cell carcinoma cell line) were cultured under ECACC recommended standard culture conditions. Growth media for all cell lines were supplemented with penicillin (100 units/ml)/streptomycin (100 μg/ml).
(§2) Compound were used at the top concentration 10 uM in a 2-fold dilution. Paclitaxel was dosed at the top concentration 1 uM in a 3-fold dilution.
(§3) A ‘Matrigel on-top’ (MoT) assay where cells were propagated in a 3-dimentional culture was used. Cells were plated above a dense base layer of Matrigel (BD Biosciences, Franklin Lakes, N.J.), diluted 1:1 with culture medium. Single cell preparations were resuspended in dilute Matrigel (1:50 in culture medium) and seeded to cover the Matrigel base layer. This ensured that ovarian cancer cells were surrounded with extracellular matrix (ECM) components, of which collagen and laminin are the major Matrigel constituents. Cells were seeded in a density of 500 cells per well in 384-well black Ultra-low attachment plates with clear bottom (Corning, Tewksbury MA). […] Cell survival/proliferation was assessed by CellTiter-Glo® Luminescent Cell Viability Assay (Promega, Madison, Wis.).
(§4) Combination effects were evaluated by comparing the averaged viability/inhibition to three different null reference models derived from the single agent activities.
(§5) The expected additivity effect is the statistical expectation for the combined effect from independent inhibitors: Mathematically, Bliss (FU)=FUA1 X FUA2, where FUA1 and FUA2 are the unaffected fraction when treated with compounds Al and A2, respectively.

[2] = system: breast cancer cells (MDA-MB-231); experiment: as above; format: cell-based; conditions: MEK inhibitor in combination with FAK inhibitor VS-6063, 96 hours incubation, compared with Bliss, HSA and Loewe models
Description: as §1, §2, §3, §4, §5

Molecule | combination effect on cell viability [1] | combination effect on cell viability [2]
Cn1cnc2c(F)c(Nc3ccc(Br)cc3Cl)c(C(=O)NOCCO)cc21 [AZD-6244] | more than additive effect | –
O=C(NOCCO)c1ccc2cncn2c1Nc1ccc(I)cc1F [GDC-0623] | more than additive effect | more than additive effect
O=C(NC[C@H](O)CO)c1ccncc1Nc1ccc(I)cc1F [pimasertib] | more than additive effect | more than additive effect
trametinib | more than additive effect | more than additive effect
cobimetinib | more than additive effect | more than additive effect

Reference: patent US10406158B2, “Methods and compositions for treating abnormal cell growth” (Verastem, Inc., priority 2014, dated 2019)
